Marks after values point to notes of the source that are not given here.
Assays:
[1] = tested on: VIM-27; assay: Fluorescence of probes after incubation with recombinant VIM-27; format: biochemical, Klebsiella pneumoniae; conditions: probe 10 μM, 2 h; for fluorescence enhancement: VIM-27 1 to 200 fmols, 25 μL 1×PBS pH 7.4, room temperature
Protocol: (§1) The fluorescence of the probes was measured before and after enzyme treatment using enzyme concentrations in the range of about 1 to about 200 fmols. […] CDC-1, a previously reported non-specific probe for β-lactamases employed as a positive control, as described by Xie et al., (2012) J. Nat.

[2] = Spontaneous hydrolysis of probe in PBS buffer; format: physicochemical; conditions: [S]0=20 μM
Source text: FIGS. 14A-14G illustrate the spontaneous hydrolysis in buffer of a probe according to the disclosure. FIG. 14A is a schema illustrating the spontaneous hydrolysis of a probe of the disclosure in PBS buffer to release umbelliferone and thereby generate a fluorescent signal. […] Initial concentration of probe, [P]: […] Error bars indicate the standard deviations of three replicate experiments.

[3] = target: T1, KPC-3 (Klebsiella pneumoniae, UniProt Q9F663, H272Y); format: biochemical; conditions: probe 10 μM, 2 h; for amount of enzyme giving detectable fluorescence: KPC-3; for fluorescence enhancement: KPC-3 1 to 200 fmols, 25 μL 1×PBS pH 7.4, room temperature
[4] = target: T2, IMP-1 (Serratia marcescens, UniProt P52699); format: biochemical, Escherichia coli; conditions: probe 10 μM, 2 h; for fluorescence enhancement: IMP-1 1 to 200 fmols, 25 μL 1×PBS pH 7.4, room temperature
[5] = target: T3, NDM-1 (Klebsiella pneumoniae, UniProt C7C422); format: biochemical, Escherichia coli; conditions: probe 10 μM, 2 h; for fluorescence enhancement: NDM-1 1 to 200 fmols, 25 μL 1×PBS pH 7.4, room temperature; for amount of enzyme giving detectable fluorescence: NDM-1
[6] = tested on: VIM-27; assay: Kinetic parameters of probes with recombinant VIM-27 (Lineweaver-Burk plots); conditions: from Lineweaver-Burk plots
[7] = target: T1, KPC-3; conditions: from Lineweaver-Burk plots
[8] = tested on: [H][C@]1(OS(=O)(=O)c2ccc(C)cc2)C(=O)N2C(C(=O)O)=C(COc3ccc4ccc(=O)oc4c3)CS[C@@]21[H]; assay: purified protein, by the assay type; conditions: from Lineweaver-Burk plots
[9] = tested on: [H][C@]1(OC)C(=O)N2C(C(=O)O)=C(COc3ccc4ccc(=O)oc4c3)CS[C@@]21[H]; assay: purified protein, by the assay type; conditions: from Lineweaver-Burk plots
[10] = tested on: [H][C@]1(OC(C)C)C(=O)N2C(C(=O)O)=C(COc3ccc4ccc(=O)oc4c3)CS[C@@]21[H]; assay: purified protein, by the assay type; conditions: from Lineweaver-Burk plots
[11] = tested on: [H][C@]1(OCC)C(=O)N2C(C(=O)O)=C(COc3ccc4ccc(=O)oc4c3)CS[C@@]21[H]; assay: purified protein, by the assay type; conditions: from Lineweaver-Burk plots
[12] = tested on: [H][C@]1(OCc2ccccc2)C(=O)N2C(C(=O)O)=C(COc3ccc4ccc(=O)oc4c3)CS[C@@]21[H]; assay: purified protein, by the assay type; conditions: from Lineweaver-Burk plots
[13] = tested on: [H][C@]1(OC(C)(C)C)C(=O)N2C(C(=O)O)=C(COc3ccc4ccc(=O)oc4c3)CS[C@@]21[H]; assay: purified protein, by the assay type; conditions: from Lineweaver-Burk plots
[14] = target: TEM-1 Bla (Escherichia coli, UniProt P62593); format: biochemical; conditions: TEM-1 Bla 1 to 200 fmols; probe 10 μM, 25 μL 1×PBS pH 7.4, room temperature, 2 h
[15] = target: BlaC (Mycobacterium tuberculosis, UniProt P9WKD3); assay: Fluorescence of probes after incubation with recombinant BlaC; format: biochemical; conditions: BlaC 1 to 200 fmols; probe 10 μM, 25 μL 1×PBS pH 7.4, room temperature, 2 h
Protocol: as §1

[16] = tested on: E. coli with IMP-1; conditions: IMP-1-expressing bacteria; 2 h incubation
[17] = tested on: non-carbapenemase lactamases; assay: Hydrolysis of probes by non-carbapenemase lactamases
[18] = target: T3, NDM-1; conditions: from Lineweaver-Burk plots
[19] = target: T2, IMP-1; conditions: from Lineweaver-Burk plots

Molecule	fluorescence enhancement [1]	Spontaneous hydrolysis rate [2]	fluorescence enhancement [4]	fluorescence enhancement [5]	Km [6] [µM]	kcat [6] [s⁻¹]	Km [7] [µM]	kcat [7] [s⁻¹]	fluorescence enhancement [14]	fluorescence enhancement [3]	fluorescence enhancement [15]	also measured
Cc1ccc(S(=O)(=O)O[C@H]2C(=O)N3C(C(=O)O)=C(COc4ccc5ccc(=O)oc5c4)CS[C@H]23)cc1 [(s)-CC-6, (6R,7S)-8-oxo-3-(((2-oxo-2H-chromen-7-yl)oxy)methyl)-7-(tosyloxy)-5-thia-1-azabicyclo[4.2.0]oct-2-ene-2-carboxylic Acid]	fluorescence enhancement	2.6e-07 s⁻¹	fluorescence enhancement	fluorescence enhancement	14.1 ± 1.2	3.9 ± 0.1	18.7 ± 7.8	0.3 ± 0.05				amount of enzyme giving detectable fluorescence ([1]; VIM-27): ≤ 1.0 fmol; amount of enzyme giving detectable fluorescence [3]: 200 fmol; amount of enzyme giving detectable fluorescence ([4]; IMP-1): ≤ 1.0 fmol; amount of enzyme giving detectable fluorescence [5]: ≤ 1.0 fmol
IMP-1 (Serratia marcescens)												Km ([8]; other: IMP-1): 3.4 ± 0.4 µM; kcat ([8]; other: IMP-1): 2.2 ± 0.02 s⁻¹; kcat/Km ([8]; other: IMP-1): 6.6 × 10^5 s^−1M^−1; Km ([9]; other: IMP-1): 7.8 ± 0.2 µM; kcat ([9]; other: IMP-1): 12.2 ± 0.1 s⁻¹; kcat/Km ([9]; other: IMP-1): 1.6 × 10^6 s^−1M^−1; Km ([10]; other: IMP-1): 3.2 ± 0.07 µM; kcat ([10]; other: IMP-1): 8.0 ± 0.04 s⁻¹; kcat/Km ([10]; other: IMP-1): 2.5 × 10^6 s^−1M^−1; Km ([11]; other: IMP-1): 12.9 ± 1.0 µM; kcat ([11]; other: IMP-1): 16.6 ± 0.1 s⁻¹; kcat/Km ([11]; other: IMP-1): 1.3 × 10^6 s^−1M^−1; Km ([12]; other: IMP-1): 3.6 ± 0.1 µM; kcat ([12]; other: IMP-1): 4.2 ± 0.03 s⁻¹; kcat/Km ([12]; other: IMP-1): 1.2 × 10^6 s^−1M^−1; Km ([13]; other: IMP-1): 9.4 ± 1.3 µM; kcat ([13]; other: IMP-1): 2.1 ± 0.01 s⁻¹; kcat/Km ([13]; other: IMP-1): 2.2 × 10^5 s^−1M^−1
NDM-1 (Klebsiella pneumoniae)												Km ([8]; other: NDM-1): 4.7 ± 0.3 µM; kcat ([8]; other: NDM-1): 1.9 ± 0.06 s⁻¹; kcat/Km ([8]; other: NDM-1): 4.0 × 10^5 s^−1M^−1; Km ([9]; other: NDM-1): 12.0 ± 0.7 µM; kcat ([9]; other: NDM-1): 0.2 ± 0.02 s⁻¹; kcat/Km ([9]; other: NDM-1): 2.0 × 10^4 s^−1M^−1; Km ([10]; other: NDM-1): 6.0 ± 3.5 µM; kcat ([10]; other: NDM-1): 0.1 ± 0.01 s⁻¹; kcat/Km ([10]; other: NDM-1): 2.0 × 10^4 s^−1M^−1; Km ([11]; other: NDM-1): 14.9 ± 2.7 µM; kcat ([11]; other: NDM-1): 0.3 ± 0.01 s⁻¹; kcat/Km ([11]; other: NDM-1): 1.7 × 10^4 s^−1M^−1; Km ([12]; other: NDM-1): 26.7 ± 0.2 µM; kcat ([12]; other: NDM-1): 0.3 ± 0.0 s⁻¹; kcat/Km ([12]; other: NDM-1): 1.0 × 10^4 s^−1M^−1; Km ([13]; other: NDM-1): 58.6 ± 16.0 µM; kcat ([13]; other: NDM-1): 0.3 ± 0.04 s⁻¹; kcat/Km ([13]; other: NDM-1): 5.1 × 10^3 s^−1M^−1
CCO[C@H]1C(=O)N2C(C(=O)O)=C(COc3ccc4ccc(=O)oc4c3)CS[C@H]12 [(s)-CC-2, (6R,7S)-7-ethoxy-8-oxo-3-(((2-oxo-2H-chromen-7-yl)oxy)methyl)-5-thia-1-azabicyclo[4.2.0]oct-2-ene-2-carboxylic Acid]	high fluorescence signals	5.9e-07 s⁻¹	high fluorescence signals	high fluorescence signals	23	0.71 ± 0.0	39.1 ± 1.3	0.3 ± 0.05	almost no fluorescence enhancement	high fluorescence signals	almost no fluorescence enhancement	
CC(C)(C)O[C@H]1C(=O)N2C(C(=O)O)=C(COc3ccc4ccc(=O)oc4c3)CS[C@H]12 [(s)-CC-4, (6R,7S)-7-(tert-butoxy)-8-oxo-3-(((2-oxo-2H-chromen-7-yl)oxy)methyl)-5-thia-1-azabicyclo[4.2.0]oct-2-ene-2-carboxylic Acid]		5.4e-07 s⁻¹	high specificity for IMP-1		91.6 ± 10.1	0.2 ± 0.01	121 ± 85	0.2 ± 0.1				number of bacteria detected / detection limit [16]: about 1×10^5 c.f.u.; hydrolysis by non-carbapenemase lactamases [17]: No hydrolysis; amount of enzyme giving detectable fluorescence [5]: about 200 fmol
CO[C@H]1C(=O)N2C(C(=O)O)=C(COc3ccc4ccc(=O)oc4c3)CS[C@H]12 [(s)-CC-1, (6R,7S)-7-methoxy-8-oxo-3-(((2-oxo-2H-chromen-7-yl)oxy)methyl)-5-thia-1-azabicyclo[4.2.0.]oct-2-ene-2-carboxylic Acid]	high fluorescence signals	7e-08 s⁻¹	high fluorescence signals	high fluorescence signals	29.2 ± 7	1.1 ± 0.1	67.7 ± 4.9	1.5 ± 0.05	almost no fluorescence enhancement	high fluorescence signals	almost no fluorescence enhancement	number of bacteria detected / detection limit [16]: ≤ 10^4 c.f.u.
O=C(O)C1=C(COc2ccc3ccc(=O)oc3c2)CS[C@@H]2[C@@H](OCc3ccccc3)C(=O)N12 [(s)-CC-5, (6R,7S)-7-(benzyloxy)-8-oxo-3-(((2-oxo-2H-chromen-7-yl)oxy)methyl)-5-thia-1-azabicyclo[4.2.0]oct-2-ene-2-carboxylic Acid]	high fluorescence signals	2.7e-07 s⁻¹	high fluorescence signals	high fluorescence signals	145 ± 100	3.4 ± 1.5	5.2 ± 0.5	1.1 ± 0.01	almost no fluorescence enhancement	high fluorescence signals	almost no fluorescence enhancement	hydrolysis by non-carbapenemase lactamases [17]: no hydrolysis
O=C(Cc1ccccc1)N[C@@H]1C(=O)N2C(C(=O)O)=C(COc3ccc4ccc(=O)oc4c3)CS[C@H]12 [CDC-1, reference compound]	positive fluorescence enhancement	2.4^b ×10^−7s^−1	positive fluorescence enhancement	positive fluorescence enhancement	3.8 ± 2.7	2.3 ± 0.3	21 ± 1.34	35.4 ± 0.04	positive fluorescence enhancement	positive fluorescence enhancement	positive fluorescence enhancement	Km [18]: 5.04 ± 3.2 µM; kcat [18]: 4.6 ± 0.3 s⁻¹; Km [19]: 4 ± 0.1 µM; kcat [19]: 7.9 ± 0.1 s⁻¹
CC(C)O[C@H]1C(=O)N2C(C(=O)O)=C(COc3ccc4ccc(=O)oc4c3)CS[C@H]12 [(s)-CC-3, (6R,7S)-7-isopropoxy-8-oxo-3-(((2-oxo-2H-chromen-7-yl)oxy)methyl)-5-thia-1-azabicyclo[4.2.0]oct-2-ene-2-carboxylic Acid]	fluorescence enhancement	4.8e-07 s⁻¹	fluorescence enhancement	fluorescence enhancement	61.3 ± 8.8	0.5 ± 0.04	250 ± 235	0.2 ± 0.17				amount of enzyme giving detectable fluorescence [3]: 200 fmol

From patent US10570150B2, “6,7-trans cephalosporin-based probes for detecting bacteria expressing a metallo-beta-lactamase” (priority 2014, dated 2020)
